Here are results for 36 molecules from US11116760B2 (Gilead Sciences, Inc., priority 2018, dated 2021).

In general, EC50 refers to the concentration giving half of the maximal effect. Read a high EC50 as weaker potency.

The target in one test is α4β7 integrin (Homo sapiens (Human), UniProt P13612+P26010). Put plainly: α4β7 Integrin Cell Capture Assay. It counts as cell-based. The conditions noted are these: RPMI8866 cells captured on MadCAM-1 extracellular domain-coated plate.
Sequence of α4β7 integrin (P13612 34-1032): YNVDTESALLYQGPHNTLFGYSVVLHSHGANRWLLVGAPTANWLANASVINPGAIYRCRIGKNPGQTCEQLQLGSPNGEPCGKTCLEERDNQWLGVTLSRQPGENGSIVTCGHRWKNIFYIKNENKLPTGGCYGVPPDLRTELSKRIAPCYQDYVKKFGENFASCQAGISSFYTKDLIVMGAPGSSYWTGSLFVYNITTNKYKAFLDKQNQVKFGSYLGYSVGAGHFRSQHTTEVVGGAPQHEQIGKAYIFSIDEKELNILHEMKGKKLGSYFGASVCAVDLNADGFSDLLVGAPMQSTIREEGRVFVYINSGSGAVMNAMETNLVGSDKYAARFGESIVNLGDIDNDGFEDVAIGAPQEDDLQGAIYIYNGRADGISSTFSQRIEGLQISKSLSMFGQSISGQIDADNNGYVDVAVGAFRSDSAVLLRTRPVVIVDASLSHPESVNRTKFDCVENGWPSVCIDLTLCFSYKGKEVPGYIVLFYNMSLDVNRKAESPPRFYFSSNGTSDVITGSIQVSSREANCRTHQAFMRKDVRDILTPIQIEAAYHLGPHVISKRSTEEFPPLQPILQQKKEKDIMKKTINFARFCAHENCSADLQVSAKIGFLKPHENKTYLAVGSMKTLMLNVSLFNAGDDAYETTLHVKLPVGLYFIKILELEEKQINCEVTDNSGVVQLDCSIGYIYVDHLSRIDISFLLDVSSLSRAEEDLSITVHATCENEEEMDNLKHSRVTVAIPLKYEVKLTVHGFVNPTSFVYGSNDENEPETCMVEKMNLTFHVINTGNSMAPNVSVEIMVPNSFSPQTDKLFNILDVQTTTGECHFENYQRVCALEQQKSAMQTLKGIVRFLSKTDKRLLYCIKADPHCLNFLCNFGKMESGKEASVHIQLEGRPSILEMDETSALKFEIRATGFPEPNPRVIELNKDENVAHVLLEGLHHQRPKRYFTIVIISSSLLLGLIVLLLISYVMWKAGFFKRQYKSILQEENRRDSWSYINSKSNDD
Sequence of α4β7 integrin (P26010 20-798): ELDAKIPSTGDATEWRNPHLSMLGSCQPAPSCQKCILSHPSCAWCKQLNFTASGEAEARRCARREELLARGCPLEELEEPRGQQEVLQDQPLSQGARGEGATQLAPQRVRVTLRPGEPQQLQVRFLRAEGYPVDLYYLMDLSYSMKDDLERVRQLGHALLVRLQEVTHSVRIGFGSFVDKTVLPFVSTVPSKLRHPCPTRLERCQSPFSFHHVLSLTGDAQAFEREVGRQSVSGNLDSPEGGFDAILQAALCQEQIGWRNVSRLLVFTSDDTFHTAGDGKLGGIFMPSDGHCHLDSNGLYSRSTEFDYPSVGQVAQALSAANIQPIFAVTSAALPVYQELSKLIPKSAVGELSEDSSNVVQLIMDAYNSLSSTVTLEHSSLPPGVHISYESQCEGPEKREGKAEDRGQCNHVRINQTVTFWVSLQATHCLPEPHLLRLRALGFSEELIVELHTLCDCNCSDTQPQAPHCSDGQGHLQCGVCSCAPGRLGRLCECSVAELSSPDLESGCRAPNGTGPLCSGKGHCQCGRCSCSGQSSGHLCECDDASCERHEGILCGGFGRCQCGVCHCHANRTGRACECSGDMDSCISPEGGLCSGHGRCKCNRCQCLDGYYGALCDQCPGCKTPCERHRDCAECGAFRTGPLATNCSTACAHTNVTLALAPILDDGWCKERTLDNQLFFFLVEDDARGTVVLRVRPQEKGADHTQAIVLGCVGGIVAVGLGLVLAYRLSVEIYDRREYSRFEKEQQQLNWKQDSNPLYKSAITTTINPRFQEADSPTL
Take `Cc1cc(N2CCOC[C@@H]2C(F)(F)F)cc(F)c1C(=O)N[C@@H](Cc1ccc(-c2ccc(C)n(C)c2=O)c2ncccc12)C(=O)O` [Example 444]: the half-maximal effective concentration (EC50) was found to be 0.161 nM. `CC[C@@H](Nc1cc(F)c(C(=O)N[C@@H](Cc2ccc(-n3c(=O)c4ccncc4n(C)c3=O)c3ncccc23)C(=O)O)c(F)c1)C(F)(F)F` [Example 475] displayed an EC50 of 0.157 nM.

For the molecule `Cc1cc(N2CCOC[C@@H]2C(F)(F)F)cc(F)c1C(=O)N[C@@H](Cc1ccc(-n2c(=O)c3ccc(F)cc3n(C)c2=O)c2ncccc12)C(=O)O` [Example 431], it took 0.094 nM to reach a half-maximal effect (EC50).

The molecule `Cc1cc(N2CCOC[C@@H]2C(F)(F)F)cc(F)c1C(=O)N[C@@H](Cc1ccc(-c2c(C(F)(F)F)cc(C)n(C)c2=O)c2ncccc12)C(=O)O` (atropisomer, axis not shown) [Example 461] yielded a concentration giving a half-maximal response (EC50) of 0.093 nM.

As for `Cc1cc(C(F)(F)F)c(-c2ccc(C[C@H](NC(=O)c3c(F)cc(N4CCc5ccccc5[C@@H]4C(F)(F)F)cc3F)C(=O)O)c3cccnc23)c(=O)n1C` [Example 472], the response was half-maximal at 0.331 nM (EC50). `Cn1c(=O)n(-c2ccc(C[C@H](NC(=O)c3c(F)cc(N4CCOC[C@@H]4C(F)(F)F)cc3Cl)C(=O)O)c3cccnc23)c(=O)c2ccncc21` [Example 414] gave an EC50 of 0.048 nM. Same read-out and setting: under `Cc1cc(N2CCOC[C@@H]2C(F)(F)F)cc(F)c1C(=O)N[C@@H](Cc1ccc(-n2c(=O)c3ccncc3n(C)c2=O)c2ncccc12)C(=O)O` (single isomer, unassigned) [Example 407] stands 0.162 nM; under `Cc1cc(N2CCOC[C@@H]2C(F)(F)F)cc(F)c1C(=O)N[C@@H](Cc1ccc(-c2nc(C)c(C)c(C)n2)c2ncccc12)C(=O)O` [Example 443], 0.714 nM.

The same test, now with this note: Table 1; capture of α4β7 expressing RPM18866 cells on MadCAM-1 extracellular domain-coated plate.
In the case of `N#Cc1ccc(-c2ccc(C[C@H](NC(=O)c3c(F)cc(NS(=O)(=O)c4ccc(-c5ccnc(F)c5)cc4)cc3F)C(=O)O)c3cccnc23)c(Cl)c1` [Example 47, (S)-3-(8-(2-chloro-4-cyanophenyl)quinolin-5-yl)-2-(2,6-difluoro-4-((4-(2-fluoropyridin-4-yl)phenyl)sulfonamido)benzamido)propanoic acid], the EC50 was found to be 2.4 nM.

The molecule `CC[C@@H](Nc1cc(F)c(C(=O)N[C@@H](Cc2ccc(-c3c(OC)c4ccccc4n(C)c3=O)c3ncccc23)C(=O)O)c(F)c1)C(F)(F)F` [Example 122, (S)-2-(2,6-difluoro-4-(((R)-1,1,1-trifluorobutan-2-yl)amino)benzamido)-3-(4-methoxy-1-methyl-2-oxo-1,2-dihydro-[3,8′-biquinolin]-5′-yl)propanoic acid] had an EC50 of 0.2 nM. Still for that read-out and setting: to `CC[C@@H](Nc1cc(F)c(C(=O)N[C@@H](Cc2ccc(-c3c(C(F)(F)F)cc(C)n(C)c3=O)c3ncc(F)cc23)C(=O)O)c(F)c1)C(F)(F)F` [Example 140, (S)-2-(2,6-difluoro-4-(((R)-1,1,1-trifluorobutan-2-yl)amino)benzamido)-3-(8-(1,6-dimethyl-2-oxo-4-(trifluoromethyl)-1,2-dihydropyridin-3-yl)-3-fluoroquinolin-5-yl)propanoic acid] belongs 0.5 nM; to `Cc1c(C(F)(F)F)cn(C)c(=O)c1-c1ccc(C[C@H](NC(=O)c2c(F)cc(N3CCOC[C@@H]3C(F)(F)F)cc2F)C(=O)O)c2cccnc12` [Example 106, (S)-2-(2,6-difluoro-4-((R)-3-(trifluoromethyl)morpholino)benzamido)-3-(8-(1,4-dimethyl-2-oxo-5-(trifluoromethyl)-1,2-dihydropyridin-3-yl)quinolin-5-yl)propanoic acid], 0.3 nM.

For the molecule `CCOCc1cc(OC)c(-c2ccc(C[C@H](NC(=O)c3c(F)cc(C(N)=O)cc3F)C(=O)O)c3cccnc23)c(OC)c1` [Example 43, (S)-2-(4-carbamoyl-2,6-difluorobenzamido)-3-(8-(4-(ethoxymethyl)-2,6-dimethoxyphenyl)quinolin-5-yl)propanoic acid], the EC50 turned out to be 4.6 nM. On the same count and under the same terms, to `N#Cc1ccc(-c2ccc(C[C@H](NC(=O)c3c(F)ccc(OC(F)F)c3F)C(=O)O)c3cccnc23)c(Cl)c1` [Example 16, (S)-3-(8-(2-chloro-4-cyanophenyl)quinolin-5-yl)-2-(3-(difluoromethoxy)-2,6-difluorobenzamido)propanoic acid] belongs 67.4 nM; to `Cc1cc(N2CCC2)c(-c2ccc(C[C@H](NC(=O)c3c(F)cc(N4CCOC[C@@H]4C(F)(F)F)cc3F)C(=O)O)c3cccnc23)c(=O)n1C` [Example 103, (S)-3-(8-(4-(azetidin-1-yl)-1,6-dimethyl-2-oxo-1,2-dihydropyridin-3-yl)quinolin-5-yl)-2-(2,6-difluoro-4-((R)-3-(trifluoromethyl)morpholino)benzamido)propanoic acid], 0.7 nM. With `CCOCc1cc(OC)c(-c2ccc(CC(NC(=O)c3c(F)cccc3F)C(=O)O)c3ccc(C(F)(F)F)nc23)c(OC)c1` (stereo not drawn) [Example 38, 2-(2,6-difluorobenzamido)-3-(8-(4-(ethoxymethyl)-2,6-dimethoxyphenyl)-2-(trifluoromethyl)quinolin-5-yl)propanoic acid], the response was half-maximal at 29.7 nM (EC50). `Cc1cc(C(F)(F)F)c(-c2ccc(C[C@H](NC(=O)c3c(F)cc(N4C[C@@H](C)OC[C@@H]4C(F)(F)F)cc3F)C(=O)O)c3cccnc23)c(=O)n1C` [Example 136, (S)-2-(2,6-difluoro-4-((2R,5R)-2-methyl-5-(trifluoromethyl)morpholino)benzamido)-3-(8-(1,6-dimethyl-2-oxo-4-(trifluoromethyl)-1,2-dihydropyridin-3-yl)quinolin-5-yl)propanoic acid] had an EC50 of 0.2 nM.

In turn, `O=C(N[C@@H](Cc1ccc(-c2ncccn2)c2ncccc12)C(=O)O)c1c(F)cc(NS(=O)(=O)c2ccc(-c3ccnc(F)c3)cc2)cc1F` [Example 58, (S)-2-(2,6-difluoro-4-((4-(2-fluoropyridin-4-yl)phenyl)sulfonamido)benzamido)-3-(8-(pyrimidin-2-yl)quinolin-5-yl)propanoic acid] had an EC50 of 2 nM. In the case of `CC[C@@H](Nc1cc(F)c(C(=O)N[C@@H](Cc2ccc(-c3c(C(F)(F)F)c4ccncc4n(C)c3=O)c3ncccc23)C(=O)O)c(F)c1)C(F)(F)F` [Example 111, (S)-2-(2,6-difluoro-4-(((R)-1,1,1-trifluorobutan-2-yl)amino)benzamido)-3-(8-(1-methyl-2-oxo-4-(trifluoromethyl)-1,2-dihydro-1,7-naphthyridin-3-yl)quinolin-5-yl)propanoic acid], the EC50 is 0.1 nM. `Cc1cc(C)c(-c2ccc(C[C@H](NC(=O)c3c(F)cccc3F)C(=O)O)c3cccnc23)nc1C` [Example 11, (S)-2-(2,6-difluorobenzamido)-3-(8-(3,5,6-trimethylpyridin-2-yl)quinolin-5-yl)propanoic acid]: the EC50 is 22.9 nM. Regarding `Cc1cc(C(F)(F)F)c(-c2ccc(C[C@H](NC(=O)c3c(F)cc(N4CCOC[C@@H]4CC(F)(F)F)cc3F)C(=O)O)c3cccnc23)c(=O)n1C` [Example 131, (S)-2-(2,6-difluoro-4-((S)-3-(2,2,2-trifluoroethyl)morpholino)benzamido)-3-(8-(1,6-dimethyl-2-oxo-4-(trifluoromethyl)-1,2-dihydropyridin-3-yl)quinolin-5-yl)propanoic acid], the midpoint of the response, the EC50, lay at 0.8 nM.

The same test, now with this note: Table 2; capture of α4β7 expressing RPM18866 cells on MadCAM-1 extracellular domain-coated plate.
`C[C@@H](Nc1cc(F)c(C(=O)N[C@@H](Cc2ccc(-c3c(Cl)cc(C#N)cc3Cl)c3ncccc23)C(=O)O)c(F)c1)C(F)(F)F` [Example 288] displayed an EC50 of 5.8 nM. On the same count and under the same terms, under `Cc1[nH]c2cc(Cl)c(C(=O)N[C@@H](Cc3ccc(-c4ccc(C#N)cc4Cl)c4ncccc34)C(=O)O)c(Cl)c2c1C` [Example 174] stands 97.8 nM. In turn, `Cc1cc(C(F)(F)F)c(-c2ccc(C[C@H](NC(=O)c3c(F)cc(N4C[C@@H](C)OC[C@@H]4C)cc3F)C(=O)O)c3cccnc23)c(=O)n1C` [Example 191] showed an EC50 of 1.3 nM. As for `CC[C@@H](Nc1cc(F)c(C(=O)N[C@@H](Cc2ccc(-c3ncc4ccccc4c3C(F)(F)F)c3ncccc23)C(=O)O)c(F)c1)C(F)(F)F` [Example 276], the EC50 amounted to 4.9 nM. As for `Cc1cc(C(F)(F)F)c(-c2ccc(C[C@H](NC(=O)c3c(F)cc(N4CCOC[C@H]4CC(F)F)cc3F)C(=O)O)c3cccnc23)c(=O)n1C` [Example 250], the response was half-maximal at 3.1 nM (EC50). Same read-out and setting: under `O=C(N[C@@H](Cc1ccc(NC(=O)c2c(Cl)cncc2Cl)c2ncccc12)C(=O)O)c1c(F)cccc1F` [Example 316] stands 13.7 nM. Same read-out and setting: under `N#Cc1ccc(-c2ccc(C[C@H](NC(=O)c3c(F)cc(C(=O)N[C@H]4C[C@@H](O)C4)cc3F)C(=O)O)c3cccnc23)c(Cl)c1` [Example 267] stands 77 nM; under `CC[C@@H](Nc1cc(F)c(C(=O)N[C@@H](Cc2ccc(-c3ccc(F)c4cccnc34)c3ncccc23)C(=O)O)c(F)c1)C(F)(F)F` [Example 264], 4.1 nM. `Cc1c(-c2ccc(C[C@H](NC(=O)c3c(F)cc(N4CCS(=O)(=O)[C@H](C)C4)cc3F)C(=O)O)c3cccnc23)c(=O)n(C)c(=O)n1C` [Example 237] showed a 50% effective concentration (EC50) of 2.6 nM. Still for that read-out and setting: under `COc1cc(F)c(C(F)(F)F)cc1-c1ccc(C[C@H](NC(=O)c2c(F)cccc2F)C(=O)O)c2cccnc12` [Example 215] stands 29 nM. Molecule `CC[C@@H](Nc1cc(F)c(C(=O)N[C@@H](Cc2ccc(-c3c(C)c(N(C)C)cn(C)c3=O)c3ncccc23)C(=O)O)c(F)c1)C(F)(F)F` [Example 287] registered a 50% effective concentration (EC50) of 5.7 nM. `N#Cc1ccc(-c2ccc(C[C@H](NC(=O)c3c(Cl)cc4cc[nH]c4c3Cl)C(=O)O)c3cccnc23)c(Cl)c1` [Example 317] yielded an EC50 of 13.8 nM. The molecule `CC[C@@H](Nc1cc(F)c(C(=O)N[C@@H](Cc2ccc(-c3ncc(C)cc3C(F)(F)F)c3ncccc23)C(=O)O)c(F)c1)C(F)(F)F` [Example 310] yielded an EC50 of 12.3 nM.

The molecule `CC[C@@H](Nc1cc(F)c(C(=O)N[C@@H](Cc2ccc(-c3c(C(F)(F)F)c4cc(N(C)C)ccc4n(C)c3=O)c3ncccc23)C(=O)O)c(F)c1)C(F)(F)F` (atropisomer, axis not shown) [Example 168] registered an EC50 of 0.5 nM. Molecule `CC[C@@H](Nc1cc(F)c(C(=O)N[C@@H](Cc2ccc(-c3nccc(C)c3N(C)C)c3ncccc23)C(=O)O)c(F)c1)C(F)(F)F` [Example 300] showed an EC50 of 8.4 nM.
